Experimental findings from PubChem BioAssay (NCI) are described below.

Some test systems named below: COLO 205 colon; IGROV1 ovarian; SW-620 colon; CAKI-1 renal; A498 renal; MDA-MB-435; MCF7 breast; EKVX NSCLC; NCI-H226 lung; PC-3 prostate.
What all share (assay): inhibition of tumour cell growth, NCI panel, 48 h

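Protocol summary: plate cells (96-well), add compound at 5 concentrations, incubate 48 h, interpolate endpoints linearly. GI50 = concentration required for 50% inhibition of growth. TGI: total growth inhibition.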

On to `O=C1C2C(C(=O)N1c1ccccc1)C1([N+](=O)[O-])C=C3c4ccccc4N(C(=O)c4ccccc4)C32C2C(=O)N(c3ccccc3)C(=O)C21` (configuration not stated), for which the TGI in the experiment with COLO 205 colon, in the experiment on IGROV1 ovarian, with SW-620 colon, with CAKI-1 renal and in the experiment on A498 renal was over 100 µM each time.

For `C=C1C(=O)O[C@H]2[C@H]1CC/C(COC(=O)C(C)c1ccc(CC(C)C)cc1)=C\CC[C@@]1(C)O[C@@H]21` (some centres not stated), the GI50 was 1.91 µM in the experiment on COLO 205 colon; 1.07 µM in the experiment on IGROV1 ovarian; 1.49 µM with MDA-MB-435; 0.534 µM in the experiment with SW-620 colon; 1.67 µM with CAKI-1 renal; 0.791 µM in the experiment with MCF7 breast. In addition, the GI50 was 1.75 µM with EKVX NSCLC, 1.64 µM in the experiment on NCI-H226 lung and 0.891 µM with PC-3 prostate. Also, the TGI in the experiment with COLO 205 colon is 4.1 µM; in the experiment with IGROV1 ovarian, 2.33 µM; in the experiment with MDA-MB-435 it was 2.92 µM; in the experiment on SW-620 colon, 1.95 µM; in the experiment on CAKI-1 renal it was 3.04 µM; in the experiment with MCF7 breast it was 2.49 µM. The figures for the TGI with EKVX NSCLC, in the experiment on NCI-H226 lung and with PC-3 prostate were 3.35 µM, 3.52 µM and 2.17 µM, respectively.

As for `CO/N=C(\COc1ccc2oc(-c3ccccc3)cc(=O)c2c1)c1ccc(OC)cc1`, the GI50 in the experiment with COLO 205 colon was 30.8 µM; with IGROV1 ovarian, 17.9 µM; in the experiment on MDA-MB-435, 15 µM; in the experiment with SW-620 colon, 25.6 µM; with CAKI-1 renal, 22.7 µM; in the experiment on EKVX NSCLC it was 37.3 µM. The GI50 is 50.1 µM in the experiment on NCI-H226 lung, 29.9 µM in the experiment on PC-3 prostate and 23.7 µM in the experiment with A498 renal. The TGI in the experiment with COLO 205 colon is over 100 µM; in the experiment on IGROV1 ovarian it was 42.8 µM; in the experiment on MDA-MB-435, 36.9 µM; in the experiment with SW-620 colon, over 100 µM; in the experiment on CAKI-1 renal it was 69.2 µM; in the experiment with EKVX NSCLC, over 100 µM. The TGI was over 100 µM in the experiment with NCI-H226 lung, 98.5 µM with PC-3 prostate and 66.3 µM in the experiment with A498 renal.

For `CC(C)(C)c1ccc(OCCOCCOc2ccc(C(C)(C)C)cc2S(=O)(=O)Nc2ccc([N+](=O)[O-])cc2)c(S(=O)(=O)Nc2ccc([N+](=O)[O-])cc2)c1`, the TGI in the experiment with COLO 205 colon, in the experiment on IGROV1 ovarian, with SW-620 colon, in the experiment on CAKI-1 renal, in the experiment on EKVX NSCLC and in the experiment with NCI-H226 lung was over 100 µM throughout. The same molecule had a TGI in the experiment on A498 renal of 90.9 µM.

Take `O=C1c2ccccc2-c2c1c1c(O)cccc1n2Cc1ccccn1`: the GI50 in the experiment on COLO 205 colon is 61 µM; in the experiment with IGROV1 ovarian, 88.6 µM; with MDA-MB-435 it was 27.4 µM; in the experiment with SW-620 colon it was 42 µM; in the experiment on CAKI-1 renal, 20.4 µM; with MCF7 breast, 62.4 µM. Moreover, the GI50 is 17.6 µM with EKVX NSCLC, 12.8 µM in the experiment with NCI-H226 lung and 43.8 µM in the experiment with PC-3 prostate. Moreover, the TGI in the experiment with COLO 205 colon, in the experiment on IGROV1 ovarian, with MDA-MB-435, in the experiment on SW-620 colon, in the experiment on CAKI-1 renal and in the experiment with MCF7 breast was over 100 µM throughout. The TGI in the experiment with EKVX NSCLC was 70 µM; with NCI-H226 lung, 65.3 µM; in the experiment on PC-3 prostate, over 100 µM.

For the molecule `NC1=NN(c2ccccc2)C(=O)C1C(=O)C(=O)Nc1nccs1` (configuration not stated), the TGI in the experiment with COLO 205 colon, with IGROV1 ovarian, with SW-620 colon, with CAKI-1 renal, in the experiment with EKVX NSCLC and in the experiment with NCI-H226 lung was over 100 µM in each case. For the same molecule, the TGI in the experiment with A498 renal is over 100 µM.

Take `COc1ccc2c3c(c(C(=O)c4ccccc4)oc13)CCC2`: the TGI in the experiment on COLO 205 colon, in the experiment with IGROV1 ovarian, in the experiment on SW-620 colon, with CAKI-1 renal, with EKVX NSCLC and in the experiment on A498 renal was over 100 µM in each case.

As to `N#CC1(C#N)C2C=CC(c3coc4cccc2c34)C1(C#N)C#N` (configuration not stated), the TGI in the experiment with COLO 205 colon was 4.4 µM; in the experiment on IGROV1 ovarian it was 35.9 µM; in the experiment with SW-620 colon, 3.32 µM; with EKVX NSCLC it was 33 µM; with NCI-H226 lung it was 34.3 µM; in the experiment with A498 renal it was 34.6 µM.

For `CCOC(=O)c1cc(-c2ccccc2)[nH]c1N/N=C/c1ccc(Cl)cc1`, the GI50 is 42.5 µM in the experiment with COLO 205 colon; 95.2 µM in the experiment on IGROV1 ovarian; over 100 µM in the experiment with MDA-MB-435; over 100 µM with SW-620 colon; 30.9 µM with CAKI-1 renal; 19.5 µM in the experiment with MCF7 breast. The GI50 in the experiment with EKVX NSCLC is 36 µM; with NCI-H226 lung, over 100 µM; in the experiment on PC-3 prostate, 21.8 µM. Moreover, the TGI in the experiment with COLO 205 colon, in the experiment with IGROV1 ovarian, in the experiment on MDA-MB-435, with SW-620 colon, in the experiment with CAKI-1 renal and in the experiment on MCF7 breast was over 100 µM throughout. Moreover, the TGI with EKVX NSCLC, in the experiment with NCI-H226 lung and with PC-3 prostate was over 100 µM each time.

As for `O=C(CCn1[nH]c(=O)c(Cl)c(Cl)c1=O)NNC(=O)C[n+]1ccccc1`, the TGI in the experiment with COLO 205 colon, with IGROV1 ovarian, in the experiment on SW-620 colon, in the experiment on CAKI-1 renal, in the experiment on EKVX NSCLC and in the experiment with NCI-H226 lung was over 100 µM in each case. Moreover, the TGI in the experiment with A498 renal was over 100 µM.

As to `CCOC(=O)c1cnc2c(ccc3ncccc32)c1NCCCN(CC)CC`, the TGI in the experiment with COLO 205 colon, with IGROV1 ovarian, in the experiment on SW-620 colon, in the experiment on CAKI-1 renal, in the experiment with EKVX NSCLC and in the experiment with NCI-H226 lung was over 100 µM each time. Moreover, in the experiment with A498 renal, the TGI is over 100 µM.
